In EP0377642B1, “HERBICIDES FOR WEED CONTROL IN RICE” (E.I. DU PONT DE NEMOURS AND COMPANY, priority 1987, dated 1989):

Experiments:
Cyperus species = assay: Field test, herbicidal efficacy in rice, Thailand, applied 36 days after seeding (Table 1); format: in vivo; conditions: 100=complete control
Text: (§1) Methyl 2-[[[[(4-methoxy-6-methyl-1,3,5-triazin-2-yl)amino]carbonyl]amino]sulfonyl]benzoate (Compound 1) and mixtures thereof with other compounds were applied as a spray (using a hand sprayer) to rice (either transplanted or direct seeded) in several rice growing areas in Southeast Asia and in the U.S. Tables 1-28 contain the results of these tests and clearly exemplify the utility of this invention. The details of each application are included in the appropriate table. [drawing 2]

Sphenoclea zeylanica = assay: as above; format: in vivo; conditions: 100=complete control
Text: as §1

## COC(=O)c1ccccc1S(=O)(=O)NC(=O)Nc1nc(C)nc(OC)n1 [Compound 1, Methyl 2-[[[[(4-methoxy-6-methyl-1,3,5-triazin-2-yl)amino]carbonyl]amino]sulfonyl]benzoate]
Cyperus species; Trial 1, 2 GAI/HA
  Herbicidal efficacy CY 2WAA: 33
Cyperus species; Trial 1, 3 GAI/HA
  Herbicidal efficacy CY 2WAA: 67
Cyperus species; Trial 1, 4 GAI/HA
  Herbicidal efficacy CY 2WAA: 67
Cyperus species; Trial 1, 6 GAI/HA
  Herbicidal efficacy CY 2WAA: 67
Cyperus species; Trial 2, 2 GAI/HA
  Herbicidal efficacy CY 2WAA: 0
Cyperus species; Trial 2, 3 GAI/HA
  Herbicidal efficacy CY 2WAA: 67
Cyperus species; Trial 2, 4 GAI/HA
  Herbicidal efficacy CY 2WAA: 33
Cyperus species; Trial 2, 6 GAI/HA
  Herbicidal efficacy CY 2WAA: 67
Sphenoclea zeylanica; Trial 1, 2 GAI/HA
  Herbicidal efficacy SZ 2WAA: 100
  Herbicidal efficacy SZ 4WAA: 100
  Herbicidal efficacy SZ 6WAA: 100
Sphenoclea zeylanica; Trial 1, 3 GAI/HA
  Herbicidal efficacy SZ 2WAA: 99
  Herbicidal efficacy SZ 4WAA: 100
  Herbicidal efficacy SZ 6WAA: 100
Sphenoclea zeylanica; Trial 1, 4 GAI/HA
  Herbicidal efficacy SZ 2WAA: 100
  Herbicidal efficacy SZ 4WAA: 100
  Herbicidal efficacy SZ 6WAA: 100
Sphenoclea zeylanica; Trial 1, 6 GAI/HA
  Herbicidal efficacy SZ 2WAA: 100
  Herbicidal efficacy SZ 4WAA: 100
  Herbicidal efficacy SZ 6WAA: 100
Sphenoclea zeylanica; Trial 2, 2 GAI/HA
  Herbicidal efficacy SZ 2WAA: 97
  Herbicidal efficacy SZ 4WAA: 99
  Herbicidal efficacy SZ 6WAA: 99
Sphenoclea zeylanica; Trial 2, 3 GAI/HA
  Herbicidal efficacy SZ 2WAA: 100
  Herbicidal efficacy SZ 4WAA: 100
  Herbicidal efficacy SZ 6WAA: 100
Sphenoclea zeylanica; Trial 2, 4 GAI/HA
  Herbicidal efficacy SZ 2WAA: 99
  Herbicidal efficacy SZ 4WAA: 99
  Herbicidal efficacy SZ 6WAA: 100
Sphenoclea zeylanica; Trial 2, 6 GAI/HA
  Herbicidal efficacy SZ 2WAA: 100
  Herbicidal efficacy SZ 4WAA: 100
  Herbicidal efficacy SZ 6WAA: 100
